The values that follow come from patent US20230174556A1, “COMPOUNDS AS PROTEIN KINASE INHIBITORS” (Fochon Biosciences, Ltd., priority 2020, published 2023).

The assay concerns OCI-LY10 (PI3Kδ dependent) cells. As to the kind of experiment: OCI-LY10 cell proliferation assay (MTS). It counts as cell-based. Conditions: inhibition of OCI-LY10 cells proliferation, 72 h incubation, MTS readout at 490 nm. The protocol:
MTS testing kit was purchased from Promega (Madison, WI, USA). The RPMI-1640, Fetal bovine serum and Penicillin-Streptomycin were purchased from BI (Biological Industries, Beit Haemek, Israel). Dimethyl sulfoxide (DMSO) was purchased from Sigma (St. Louis., MO, USA). OCI-LY10 cells were cultured in RPMI1640 supplemented with Penicillin-Streptomycin and 10% FBS.
To investigate whether a compound is able to inhibit the activity of PI3Kδ in cells, a mechanism-based assay using OCI-LY10 (PI3Kδ dependent) cells was developed. In this assay, inhibition of PI3Kδ was detected by the inhibition of OCI-LY10 cells proliferation. Cells were plated into 96-well plates at a density of 10000 cells/well. Plates were incubated at 37° C., with 5 % CO2 for 4 h. Compounds were serially diluted and added to the plates with the final compound concentrations as 10000, 3333.3, 1111.1, […], 123.5, 41.2, 13.7, 4.6 and 1.5 nM. Plates were incubated at 37° C., with 5 % CO2 for 72 h. 20 µl MTS was added into each well and the plates were incubated at 37° C., with 5 % CO2 for exactly 2 h. The absorbance was measured by a microplate reader at 490 nm. IC50 was calculated using GraphPad Prism 5.0 software.

Usually IC50 stands for the concentration that gives 50% inhibition. Consider `Cc1csc2cc(C(C)n3nc(-c4ccc(OC(C)C)c(F)c4)c4c(N)ncnc43)c(-c3ccccc3)c(=O)n12` (centres unmarked) [Example 2, 7-(1-(4-amino-3-(3-fluoro-4-isopropoxyphenyl)-1H-pyrazolo[3,4-d]pyrimidin-1-yl)ethyl)-3-methyl-6-phenyl-5H-thiazolo[3,2-a]pyridin-5-one], for which the IC50 is 2 nM. For the compound `Cc1csc2cc([C@H](C)n3nc(-c4ccc(OC(C)C)c(F)c4)c4c(N)ncnc43)c(-c3ccccc3)c(=O)n12` [Example 2-S, (S)-7-(1-(4-amino-3-(3-fluoro-4-isopropoxyphenyl)-1H-pyrazolo[3,4-d]pyrimidin-1-yl)ethyl)-3-methyl-6-phenyl-5H-thiazolo[3,2-a]pyridin-5-one], where the note is “Homo sapiens, OCI-Ly10, 72 h”, inhibition was half-maximal at 1 nM (IC50). Same read-out and setting: with `CC(C)Oc1ccc(-c2nn([C@@H](C)c3cc4scc(Cl)n4c(=O)c3-c3cccc(F)c3)c3ncnc(N)c23)cc1F` [Example 3, (S)-7-(1-(4-amino-3-(3-fluoro-4-isopropoxyphenyl)-1H-pyrazolo[3,4-d]pyrimidin-1-yl)ethyl)-3-chloro-6-(3-fluorophenyl)-5H-thiazolo[3,2-a]pyridin-5-one] the figure was 1 nM; with `CC(C)Oc1ccc(-c2nn([C@@H](C)c3cc4scc(Cl)n4c(=O)c3-c3ccccc3)c3ncnc(N)c23)cc1F` [Example 4, (S)-7-(1-(4-amino-3-(3-fluoro-4-isopropoxyphenyl)-1H-pyrazolo[3,4-d]pyrimidin-1-yl)ethyl)-3-chloro-6-phenyl-5H-thiazolo[3,2-a]pyridin-5-one], 1 nM; with `COc1ccc(-c2nn([C@@H](C)c3cc4scc(C)n4c(=O)c3-c3cccc(F)c3)c3ncnc(N)c23)cc1NS(C)(=O)=O` [Example 5, (S)-N-(5-(4-amino-1-(1-(6-(3-fluorophenyl)-3-methyl-5-oxo-5H-thiazolo[3,2-a]pyridin-7-yl)ethyl)-1H-pyrazolo[3,4-d]pyrimidin-3-yl)-2-methoxyphenyl)methanesulfonamide], 1 nM. The same measure, in the same setting: with `COc1ccc(-c2nn([C@@H](C)c3cc4scc(C)n4c(=O)c3-c3ccccc3)c3ncnc(N)c23)cc1NS(C)(=O)=O` [Example 6, (S)-N-(5-(4-amino-1-(1-(3-methyl-5-oxo-6-phenyl-5H-thiazolo[3,2-a]pyridin-7-yl)ethyl)-1H-pyrazolo[3,4-d]pyrimidin-3-yl)-2-methoxyphenyl)meth anesulfonamide] the figure was 1 nM. For `Cc1csc2nc([C@H](C)n3nc(-c4ccc(OC(C)C)c(F)c4)c4c(N)ncnc43)c(-c3cccc(F)c3)c(=O)n12` [Example 7, (S)-7-(1-(4-amino-3-(3-fluoro-4-isopropoxyphenyl)-1H-pyrazolo[3,4-d]pyrimidin-1-yl)ethyl)-6-(3-fluorophenyl)-3-methyl-5H-thiazolo[3,2-a]pyrimidin-5-one], inhibition (Homo sapiens, OCI-Ly10, 72 h) was half-maximal at 4 nM (IC50).

In the case of `Cc1csc2nc([C@H](C)n3nc(-c4ccc(OC(C)C)c(F)c4)c4c(N)ncnc43)c(-c3ccccc3)c(=O)n12` [Example 8, (S)-7-(1-(4-amino-3-(3-fluoro-4-isopropoxyphenyl)-1H-pyrazolo[3,4-d]pyrimidin-1-yl)ethyl)-3-methyl-6-phenyl-5H -thiazolo[3,2-a]pyrimidin-5-one], half-maximal inhibition (Homo sapiens, OCI-Ly10, 72 h) (IC50) required 6 nM. Consider `CC(C)Oc1ccc(-c2nn([C@H](c3cc4scc(Cl)n4c(=O)c3-c3cccc(F)c3)C3CC3)c3ncnc(N)c23)cc1F` [Example 11, (S)-7-((4-amino-3-(3-fluoro-4-isopropoxyphenyl)-1H-pyrazolo[3,4-d]pyrimidin-1-yl)(cyclopropyl)methyl)-3-chlor o-6-(3-fluorophenyl)-5H-thiazolo[3,2-a]pyridin-5-one], for which the half-inhibitory concentration (IC50) (Homo sapiens, OCI-Ly10, 72 h) turned out to be 1 nM. Consider `C[C@@H](c1cc2scc(Cl)n2c(=O)c1-c1cccc(F)c1)n1nc(-c2ccc(OC3CC3)c(F)c2)c2c(N)ncnc21` [Example 12, (S)-7-(1-(4-amino-3-(4-cyclopropoxy-3-fluorophenyl)-1H-pyrazolo[3,4-d]pyrimidin-1-yl)ethyl)-3-chloro-6-(3-fluor ophenyl)-5H-thiazolo[3,2-a]pyridin-5-one], for which the IC50 (Homo sapiens, OCI-Ly10, 72 h) is 18 nM. For the setting “Homo sapiens, OCI-Ly10, 72 h”, `C[C@@H](c1cc2scc(Cl)n2c(=O)c1-c1ccccc1)n1nc(-c2ccc(OC3CC3)c(F)c2)c2c(N)ncnc21` [Example 13, (S)-7-(1-(4-amino-3-(4-cyclopropoxy-3-fluorophenyl)-1H-pyrazolo[3,4-d]pyrimidin-1-yl)ethyl)-3-chloro-6-phenyl-5H-thiazolo[3,2-a]pyridin-5-one] had an IC50 of 15 nM. In the case of `Cc1csc2cc([C@H](C)n3nc(-c4ccc(OC(F)F)c(F)c4)c4c(N)ncnc43)c(-c3cccc(F)c3)c(=O)n12` [Example 14, (S)-7-(1-(4-amino-3-(4-(difluoromethoxy)-3-fluorophenyl)-1H-pyrazolo[3,4-d]pyrimidin-1-yl)ethyl)-6-(3-fluorophenyl)-3-methyl-5H-thiazolo[3,2-a]pyrid in-5-one], the IC50 (Homo sapiens, OCI-Ly10, 72 h) is 1 nM. Still for that read-out and setting: with `Cc1csc2cc([C@H](C)n3nc(-c4ccc(OC(F)F)c(F)c4)c4c(N)ncnc43)c(-c3ccccc3)c(=O)n12` [Example 15, (S)-7-(1-(4-amino-3-(4-(difluoromethoxy)-3-fluorophenyl)-1H-pyrazolo[3,4-d]pyrimidin-1-yl)ethyl)-3-methyl-6-ph enyl-5H-thiazolo[3,2-a]pyridin-5-one] the figure was 1 nM. The same measure, in the same setting: as for `Cc1csc2cc([C@H](C)n3nc(-c4ccc(OC5CC5)c(F)c4)c4c(N)ncnc43)c(-c3cccc(F)c3)c(=O)n12` [Example 16, (S)-7-(1-(4-amino-3-(4-cyclopropoxy-3-fluorophenyl)-1H-pyrazolo[3,4-d]pyrimidin-1-yl)ethyl)-6-(3-fluorophenyl) -3-methyl-5H-thiazolo[3,2-a]pyridin-5-one], the figure is 26 nM. Consider `Cc1csc2cc([C@H](C)n3nc(-c4ccc(OC5CC5)c(F)c4)c4c(N)ncnc43)c(-c3ccccc3)c(=O)n12` [Example 17, (S)-7-(1-(4-amino-3-(4-cyclopropoxy-3-fluoropheny1)-1H-pyrazolo[3,4-d]pyrimidin-1-yl)ethyl)-3-methyl-6-phenyl-5H-thiazolo[3,2-a]pyridin-5-one], for which 65 nM corresponded to half-maximal inhibition (IC50). Consider `Cc1csc2cc([C@H](C)n3nc(-c4ccc(OC(C)C)nc4)c4c(N)ncnc43)c(-c3ccccc3)c(=O)n12` [Example 18, (S)-7-(1-(4-amino-3-(6-isopropoxypyridin-3-yl)-1H-pyrazolo[3,4-d]pyrimidin-1-yl)ethyl)-3-methyl-6-phenyl-5H-thi azolo[3,2-a]pyridin-5-one], for which the IC50 (Homo sapiens, OCI-Ly10, 72 h) is 1 nM. Same read-out and setting: as for `Cc1csc2cc([C@H](C)n3nc(-c4ccc(OC(C)C)nc4)c4c(N)ncnc43)c(-c3cccc(F)c3)c(=O)n12` [Example 19, (S)-7-(1-(4-amino-3-(6-isopropoxypyridin-3-yl)-1H-pyrazolo[3,4-d]pyrimidin-1-yl)ethyl)-6-(3-fluorophenyl)-3-methyl-5H-thiazolo[3,2-a]pyridin-5-one], the figure is 1 nM. Same read-out and setting: as for `Cc1csc2cc([C@H](C)n3nc(-c4cnc(OC(C)C)c(F)c4)c4c(N)ncnc43)c(-c3ccccc3)c(=O)n12` [Example 20, (S)-7-(1-(4-amino-3-(5-fluoro-6-isopropoxypyridin-3-yl)-1H-pyrazolo[3,4-d]pyrimidin-1-yl)ethyl)-3-methyl-6-phenyl-5H-thiazolo[3,2-a]pyridin-5-one], the figure is 1 nM; as for `Cc1csc2cc([C@H](C)n3nc(-c4cnc(OC(C)C)c(F)c4)c4c(N)ncnc43)c(-c3cccc(F)c3)c(=O)n12` [Example 21, (S)-7-(1-(4-amino-3-(5-fluoro-6-isopropoxypyridin-3-yl)-1H-pyrazolo[3,4-d]pyrimidin-1-yl)ethyl)-6-(3-fluorophenyl)-3-methyl-5H-thiazolo[3,2-a]pyridi n-5-one], 1 nM; as for `COc1ccc(-c2nn([C@@H](C)c3cc4scc(Cl)n4c(=O)c3-c3ccccc3)c3ncnc(N)c23)cc1NS(C)(=O)=O` [Example 44, (S)-N-(5-(4-amino-1-(1-(3-chloro-5-oxo-6-phenyl-5H-thiazolo[3,2-a]pyridin-7-yl)ethyl)-1H-pyrazolo[3,4-d]pyrimidin-3-yl)-2-methoxyphenyl)methanesul fonamide], 40 nM. Same read-out and setting: with `COc1ccc(-c2nn([C@@H](C)c3cc4scc(Cl)n4c(=O)c3-c3cccc(F)c3)c3ncnc(N)c23)cc1NS(C)(=O)=O` [Example 45, (S)-N-(5-(4-amino-1-(1-(3-chloro-6-(3-fluorophenyl)-5-oxo-5H-thiazolo[3,2-a]pyridin-7-yl)ethyl)-1H-pyrazolo[3,4-d]pyrimidin-3-yl)-2-methoxyphenyl)m ethanesulfonamide] the figure was 41 nM. The compound `C[C@@H](c1cc2scc(Cl)n2c(=O)c1-c1cccc(F)c1)n1nc(-c2ccc(OC(F)F)c(F)c2)c2c(N)ncnc21` [Example 66, (S)-7-(1-(4-amino-3-(4-(difluoromethoxy)-3-fluorophenyl)-1H-pyrazolo[3,4-d]pyrimidin-1-yl)ethyl)-3-chloro-6-(3-fluorophenyl)-5H-thiazolo[3,2-α]pyrid in-5-one] came in with an IC50 of 5 nM.

`C[C@@H](c1cc2scc(Cl)n2c(=O)c1-c1ccccc1)n1nc(-c2ccc(OC(F)F)c(F)c2)c2c(N)ncnc21` [Example 67, (S)-7-(1-(4-amino-3-(4-(difluoromethoxy)-3-fluorophenyl)-1H-pyrazolo[3,4-d]pyrimidin-1-yl)ethyl)-3-chloro-6-ph enyl-5H-thiazolo[3,2-α]pyridin-5-one]: the IC50 was found to be 1 nM.
